Source: the supplement of paper PMC10307832

How the values were obtained:
Experiment in all cases: relative viability (nuclei count vs DMSO), 5 days (fraction); higher = more cells survive
NCI-H23 = test system: NCI-H23
How it was run: (§1)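 For relative viability, nuclei counts in treated wells were divided by those in vehicle wells. Lung cancer cell lines had been pin-tool dosed in 1536-well plates the day after seeding and cultured for 5 days, then fixed and stained in one step (final 0.05% Triton X-100, 1% formaldehyde, 1 ug/ml Hoechst) and imaged at 4×. Doses were one drug alone or a fixed anchor-drug dose plus five library-drug doses (not always all listed) in √10 steps, and values are duplicate-plate medians.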

PC-3 [JPC-3] = test system: PC-3 [JPC-3]
How it was run: as §1

NCI-H2023 = test system: NCI-H2023
How it was run: as §1

LC-2-ad = test system: LC-2-ad
How it was run: as §1

NCI-H2228 = test system: NCI-H2228
How it was run: as §1

NCI-H1650 = test system: NCI-H1650
How it was run: as §1

EPLC-272H = test system: EPLC-272H
How it was run: as §1

NCI-H838 = test system: NCI-H838
How it was run: as §1

NCI-H441 = test system: NCI-H441
How it was run: as §1

NCI-H2085 = test system: NCI-H2085
How it was run: as §1

NCI-H1651 = test system: NCI-H1651
How it was run: as §1

NCI-H650 = test system: NCI-H650
How it was run: as §1

## Cc1cn(-c2cc(NC(=O)c3ccc(C)c(Nc4nccc(-c5cccnc5)n4)c3)cc(C(F)(F)F)c2)cn1 [Nilotinib] + O=C(CCCCCCC(=O)Nc1ccccc1)NO [Vorinostat] (partner 1 µM)
NCI-H23; first compound 0.03162 µM
  relative viability: 0.239
NCI-H23; first compound 0.1 µM
  relative viability: 0.546
PC-3 [JPC-3]; first compound 0.001 µM
  relative viability: 0.792
PC-3 [JPC-3]; first compound 0.01 µM
  relative viability: 0.668
PC-3 [JPC-3]; first compound 0.03162 µM
  relative viability: 0.691
PC-3 [JPC-3]; first compound 0.1 µM
  relative viability: 0.53
NCI-H2023; first compound 0.001 µM
  relative viability: 0.469
NCI-H2023; first compound 0.003162 µM
  relative viability: 0.455
NCI-H2023; first compound 0.01 µM
  relative viability: 1.06
NCI-H2023; first compound 0.03162 µM
  relative viability: 0.41
NCI-H2023; first compound 0.1 µM
  relative viability: 0.174
LC-2-ad; first compound 0.001 µM
  relative viability: 0.644
LC-2-ad; first compound 0.003162 µM
  relative viability: 0.851
LC-2-ad; first compound 0.01 µM
  relative viability: 0.772
LC-2-ad; first compound 0.03162 µM
  relative viability: 0.545
LC-2-ad; first compound 0.1 µM
  relative viability: 0.318
NCI-H2228; first compound 0.001 µM
  relative viability: 0.659
NCI-H2228; first compound 0.003162 µM
  relative viability: 0.616
NCI-H2228; first compound 0.01 µM
  relative viability: 0.594
NCI-H2228; first compound 0.03162 µM
  relative viability: 0.501
NCI-H2228; first compound 0.1 µM
  relative viability: 0.588
NCI-H1650; first compound 0.001 µM
  relative viability: 0.49
NCI-H1650; first compound 0.003162 µM
  relative viability: 0.733
NCI-H1650; first compound 0.01 µM
  relative viability: 0.746
NCI-H1650; first compound 0.03162 µM
  relative viability: 0.488
NCI-H1650; first compound 0.1 µM
  relative viability: 0.528
EPLC-272H; first compound 0.001 µM
  relative viability: 0.376
EPLC-272H; first compound 0.003162 µM
  relative viability: 0.331
EPLC-272H; first compound 0.01 µM
  relative viability: 0.37
EPLC-272H; first compound 0.03162 µM
  relative viability: 0.407
EPLC-272H; first compound 0.1 µM
  relative viability: 0.579
NCI-H838; first compound 0.001 µM
  relative viability: 0.693
NCI-H838; first compound 0.003162 µM
  relative viability: 0.783
NCI-H838; first compound 0.01 µM
  relative viability: 0.753
NCI-H838; first compound 0.03162 µM
  relative viability: 0.726
NCI-H838; first compound 0.1 µM
  relative viability: 0.688
NCI-H441; first compound 0.001 µM
  relative viability: 0.544
NCI-H441; first compound 0.003162 µM
  relative viability: 1.02
NCI-H441; first compound 0.01 µM
  relative viability: 0.742
NCI-H441; first compound 0.03162 µM
  relative viability: 0.532
NCI-H441; first compound 0.1 µM
  relative viability: 0.71
NCI-H2085; first compound 0.001 µM
  relative viability: 0.833
NCI-H2085; first compound 0.003162 µM
  relative viability: 0.776
NCI-H2085; first compound 0.01 µM
  relative viability: 0.784
NCI-H2085; first compound 0.03162 µM
  relative viability: 0.753
NCI-H2085; first compound 0.1 µM
  relative viability: 0.598
NCI-H1651; first compound 0.001 µM
  relative viability: 0.531
NCI-H1651; first compound 0.003162 µM
  relative viability: 0.612
NCI-H1651; first compound 0.01 µM
  relative viability: 0.602
NCI-H1651; first compound 0.03162 µM
  relative viability: 0.528
NCI-H1651; first compound 0.1 µM
  relative viability: 0.418
NCI-H650; first compound 0.001 µM
  relative viability: 0.392
NCI-H650; first compound 0.003162 µM
  relative viability: 0.437
NCI-H650; first compound 0.01 µM
  relative viability: 0.445
NCI-H650; first compound 0.03162 µM
  relative viability: 0.407
NCI-H650; first compound 0.1 µM
  relative viability: 0.377
